Measured values as given in publication PMC4823711, “Allosteric Partial Inhibition of Monomeric Proteases. Sulfated Coumarins Induce Regulation, not just Inhibition, of Thrombin” (Scientific Reports, 2016).
“And” between values parts separate entries of the source, which are not always exact repeats. Identical values can stand only once.

Experiments:
Assay type in all cases: biochemical
[1] = target: T1, wtTH (recombinant wild type thrombin) (Homo sapiens, UniProt P00734); experiment: Inhibition of recombinant wild type thrombin; details: pH 7.4, 25 °C
T1 construct: the recombinant wild-type thrombin control
Protocol: (§1) Chromogenic substrate hydrolysis assay was used to measure potency of inhibition, as previously reported. The assay was performed using Flexstation III (Molecular Devices, Sunnyvale, CA) by monitoring substrate hydrolysis at 405 nm. For thrombin and its mutants, 180 μL of buffer (20 mM Tris-HCl, 100 mM NaCl, 2.5 mM CaCl2, 0.1% (polyethylene glycol) PEG 8000, pH 7.4) was added to each well followed by 5 μL of 240 nM thrombin and 10 μL of sulfated coumarin in DMSO to give 0.002 to 250 μM final concentration (or 10 μL of DMSO alone). After incubation for 10 min at 25 °C, 5 μL of 2 mM Spectrozyme TH was added to each well simultaneously and allowed to react for 60 seconds at 25 °C while simultaneously monitoring the reaction to obtain the rate of increase in A405. Identical experimental conditions were used for reactions in the presence of antithrombin, except for 100 nM of antithrombin added prior to the addition of the substrate.

[2] = target: T2, thrombin mutant R175A (Homo sapiens, UniProt P00734, R543A); experiment: Inhibition of thrombin mutant R175A; details: pH 7.4, 25 °C
T2 construct: a group of thrombin mutants containing replacement of either Arg or Lys present in exosite 2 to Ala
Protocol: as §1

[3] = target: T3, thrombin mutant K169A (Homo sapiens, UniProt P00734, K537A); experiment: Inhibition of thrombin mutant K169A; details: pH 7.4, 25 °C
T3 construct: a group of thrombin mutants containing replacement of either Arg or Lys present in exosite 2 to Ala
Protocol: as §1

[4] = target: T4, thrombin mutant R165A (Homo sapiens, UniProt P00734, R533A); experiment: Inhibition of thrombin mutant R165A; details: pH 7.4, 25 °C
T4 construct: a group of thrombin mutants containing replacement of either Arg or Lys present in exosite 2 to Ala
Protocol: as §1

[5] = target: T5, thrombin mutant R97A (Homo sapiens, UniProt P00734, R456A); experiment: Inhibition of thrombin mutant R97A; details: pH 7.4, 25 °C
T5 construct: a group of thrombin mutants containing replacement of either Arg or Lys present in exosite 2 to Ala
Protocol: as §1

[6] = target: T6, thrombin (Homo sapiens, UniProt P00734); experiment: Chromogenic substrate hydrolysis assay, thrombin inhibition (Spectrozyme TH); design: 6 nM plasma α-thrombin; purchased Haematologic Technologies (Essex Junction, VT); details: pH 7.4, 25 °C
Protocol: as §1
For factor XIa inhibition studies, 85 μL of buffer (50 mM Tris-HCl, 150 mM NaCl, 0.1% PEG 8000, 0.02% Tween 80, pH 7.4) was added to each well, followed by 7 μL of 15.3 nM enzyme and 3 μL of sulfated coumarin (3.75–500 μM final concentration) and incubated for 10 min at 37 °C. After the incubation period, 5 μL of 6.9 mM S-2366 was added to each well simultaneously and allowed to react for 300 sec at 37 °C. For factor Xa assay, 180 μL of buffer (20 mM Tris-HCl, 100 mM NaCl, 2.5 mM CaCl2, 0.1% PEG 8000, 0.02% Tween 80, pH 7.4) was added to each well followed by 5 μL of 43.5 nM enzyme, 10 μL of sulfated coumarin (0.002–250 μM final concentration). After a 10 min incubation, 5 μL of 5 mM Spectrozyme FXa was added to each well simultaneously and allowed to react for 300 seconds at 37 °C. The slopes generated from each experiment were used to calculate the fractional residual activity (Y) at each concentration of the inhibitor, and analyzed using logistic equation 1, in which YM is the maximum efficacy, Y0 is minimum efficacy and HS is the Hill slope.

[7] = target: T6, thrombin; experiment: Michaelis-Menten kinetics of Spectrozyme TH hydrolysis by thrombin; design: 6 nM plasma α-thrombin; purchased Haematologic Technologies (Essex Junction, VT); details: for VMAX: pH 7.4, 25 °C
Protocol: Four concentrations (0, 25, 187, and 2500 nM) of 3g were studied in triplicate where 3g was incubated with thrombin for 10 min in buffer (20 mM Tris-HCl, 100 mM NaCl, 2.5 mM CaCl2, 0.1% PEG 8000, pH 7.4) at 25 °C. Spectrozyme TH at various concentrations (0–250 μM) was added at each of the four 3g concentrations and the initial rate of hydrolysis was recorded from the increase in A405 as a function of time. This slope was fitted to the standard Michaelis-Menten equation to derive VMAX and KM of the reaction at each of the 3g concentrations.

[8] = target: T6, thrombin; experiment: Antithrombin inactivation of thrombin in the presence of sulfated coumarin; design: 6 nM plasma α-thrombin; purchased Haematologic Technologies (Essex Junction, VT); host or cells: human plasma
Protocol: The effect of 3g on the reaction of thrombin (or factor Xa) with antithrombin was studied under pseudo-first order conditions such that [AT]0 ≫ [T]0. A fixed concentration of 6 nM plasma α-thrombin in 20 mM Tris-HCl buffer, pH 7.2, containing 100 mM NaCl, 2.5 mM CaCl2 and 0.1% PEG 8000 at 25 °C was incubated for 128 min with final concentrations of 0, 75, 225, or 675 nM of 3g following which a fixed concentration of 100 nM of antithrombin was added and the reaction allowed to proceed. […] The initial rate of hydrolysis of the Spectrozymes were monitored from the linear increase in A405. The fractional residual enzyme activity at each time point was calculated from the slope, i.e., thrombin activity, measured at the start of the experiment and fitted by the standard exponential decay equation 6 to calculate the observed pseudo-first order rate constant, kOBS, at each concentration of 3g. The intrinsic second-order rate constant of antithrombin inhibition of thrombin (kINT) was calculated using equation 7 and plotted against the concentration of thrombin–3g complex, obtained from quadratic equation 8, to derive the kINT of antithrombin inhibition of thrombin–3g complex.

- HS [1]: 4.0
- IC50 [1]: 413 ± 50 nM
- ΔY [1]: 39 ± 3%
- HS [2]: 2.2
- IC50 [2]: 409 ± 80 nM
- ΔY [2]: 42 ± 5%
- HS [3]: 7.6
- IC50 [3]: 494 ± 50 nM
- ΔY [3]: 38 ± 3%
- HS [4]: 4.2
- IC50 [4]: 301 ± 20 nM
- ΔY [4]: 28 ± 2%
- HS [5]: 2.4
- IC50 [5]: 380 ± 70 nM
- ΔY [5]: 41 ± 4%
- Hill slope (HS) of thrombin inhibition [6]: 1.2
- efficacy of thrombin inhibition (ΔY) ([6]; at saturation): 47% and 50%
- IC50 ([6]; read-out: IC50 against thrombin): 180 nM
- VMAX ([7]; [3g] 25 nM): 52.4 ± 1.5 mAU/min
- VMAX ([7]; [3g] 187 nM): 45.3 ± 1.1 mAU/min
- VMAX ([7]; [3g] 2500 nM): 31.0 ± 0.9 mAU/min and 31.0 mAU/min
- reduction of VMAX ([7]; at saturating levels of 3g): ≤ 50%
- kINT, second order rate constant of antithrombin inhibition of thrombin–3g complex ([8]; at 100% saturation of thrombin, pH 7.2, 25 °C, thrombin alone 2476 ± 228): 821 ± 198 M⁻¹ s⁻¹
- proteolytic activity of thrombin–3g complex ([8]; kINT in the absence of 3g equated with 100%): 33 ± 12%
Structure (SMILES): O=c1oc2cc(OCCCCn3cc(COc4ccc(-c5c(-c6ccccc6)c6cc(Cl)cc(Cl)c6oc5=O)cc4)nn3)ccc2c(-c2ccccc2)c1-c1ccc(OS(=O)(=O)O)cc1 [3g]
